Test results as given in patent US20230407296A1, “Method to Regulate ALOX12-AS1 IncRNA-Mediated Alteration of ALOX12 Protein and to Screen for Novel Drugs to Alter ALOX12 Protein Level” (priority 2021, published 2023).
d = 2'-deoxy (DNA); m = 2'-O-methyl

What was measured:
ALOX12 = target: T1, ALOX12 (Homo sapiens, UniProt P18054); conditions: cited from earlier work
T1 sequence (P18054 1-663): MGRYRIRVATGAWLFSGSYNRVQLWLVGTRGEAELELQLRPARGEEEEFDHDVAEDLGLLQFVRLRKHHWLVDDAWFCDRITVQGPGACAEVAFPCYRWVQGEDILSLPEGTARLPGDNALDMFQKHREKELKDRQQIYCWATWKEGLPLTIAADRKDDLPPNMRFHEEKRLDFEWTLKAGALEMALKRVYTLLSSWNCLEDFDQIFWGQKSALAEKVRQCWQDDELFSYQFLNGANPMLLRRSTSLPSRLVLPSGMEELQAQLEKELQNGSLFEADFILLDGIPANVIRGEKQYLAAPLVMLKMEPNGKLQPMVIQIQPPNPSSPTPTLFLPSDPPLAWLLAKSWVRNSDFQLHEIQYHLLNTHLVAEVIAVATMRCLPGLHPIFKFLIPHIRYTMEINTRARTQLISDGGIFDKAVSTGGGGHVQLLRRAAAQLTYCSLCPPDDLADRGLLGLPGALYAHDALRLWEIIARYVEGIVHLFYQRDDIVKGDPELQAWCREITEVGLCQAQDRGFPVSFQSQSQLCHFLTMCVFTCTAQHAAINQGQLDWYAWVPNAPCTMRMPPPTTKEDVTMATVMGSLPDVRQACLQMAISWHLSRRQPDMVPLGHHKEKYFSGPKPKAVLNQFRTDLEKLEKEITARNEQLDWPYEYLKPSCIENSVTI

ALOX12 mRNA [1] = conditions: HepG2 cells; cited from earlier work
ALOX12-AS1-201 = ALOX12-AS1-201 level in ASO-transfected HEK293 cells (multiplex RT-PCR / qPCR); assay type: cell-based, human
Procedure: (§1) Small interfering RNA (siRNA)-mediated knockdown of ALOX12-AS1 in HEK293 cells was ineffective possibly because of the nuclear localization of the lncRNA. As an alternative approach, multiple isoform-specific oligonucleotides (ASOs) complementary to different regions of ALOX12-AS1-201/202 were designed (FIG. 7A-C).
(§2) Three ALOX12-AS1-202-specific ASOs were designed and two of them (ASO-2 and -3) reduced ALOX12-AS1-202 mRNA levels within 24 hours of transfection (FIGS. 7L&O, red rectangle).
(§3) Total RNA from different cell lines was extracted with Trizol reagent (Catalog number: 15596026; ThermoFisher Scientific, Canada) as per the manufacturer's recommended protocol. […] Absolute quantification of ALOX12-AS1 lncRNA isoforms was performed in a Mastercycler®ep realplex real-time PCR system (Eppendorf, Hamburg, Germany) using SYBR green dye (Catalog number: S7563; ThermoFisher Scientific). […] Real-time PCR data quality control calculations were determined by the SAS program as described previously and the calculated PCR efficiency was between 95%-99%. Quantitative RT-PCR was conducted for different cell-line derived RNAs, and the specificity of each amplified product was confirmed by melting curve analysis. Results were expressed as copy number of specific isoforms per 100 ng of total RNA.

ALOX12 mRNA [2] = assay: ALOX12 mRNA level in HEK293 cells (multiplex RT-PCR / qPCR); assay type: cell-based, human
From the text: HEK293 cells were transiently transfected with plasmids expressing ALOX12-AS1-201/202 to study lncRNA-mediated suppression of ALOX12. […] The nucleo-cytoplasmic abundance of ALOX12-AS1 lncRNA may be tightly regulated in HEK293 cells. Therefore, increased transcription of the transfected plasmids in the nucleus may not ensure higher levels of the lncRNAs in the cytoplasm, which may be a requisite for suppression of ALOX12. To overcome this limitation, HEK293 cells were transfected with in vitro transcribed ALOX12-AS1-201/202 mRNAs to ensure high cytoplasmic abundance of the antisense lncRNAs. […]
as §3

ALOX12-AS1-202 = ALOX12-AS1-202 level in ASO-transfected HEK293 cells (multiplex RT-PCR / qPCR); assay type: cell-based, human; conditions: HEK293, ALOX12-AS1-201-targeted ASO, 24 hours after transfection, quantitative PCR
Procedure: as §1, §2, §3

[3] = tested on: ALOX12 protein level in HEK293 cells; assay: ALOX12 protein level in HEK293 cells (immunoblot); assay type: cell-based, human
Procedure: Relative quantification of proteins was performed as described previously [35, 106]. The cell lysates were prepared in 1×RIPA lysis and extraction buffer (catalogue number: 89900, ThermoFisher Scientific) supplemented with 1× Halt protease and phosphatase inhibitor cocktail (catalogue number: 78441, ThermoFisher Scientific). The protein lysates were denatured in Laemmli buffer containing 2% SDS, 10% glycerol, 0.002% bromophenol blue, 0.75 M Tris-HCl pH 6.8, and 100 mM DTT. The immunoblots were imaged using a ChemiDoc XRS+ system (Bio-Rad) and band intensities were quantified using ImageJ (version 1.48) Software [107]. Due to the possibility of inconsistency in the relative expression of housekeeping genes, we normalized all proteins of interest based on the intensity of the Oriole-stained protein profile [92].

O=c1cc(-c2ccccc2)oc2cc(O)c(O)c(O)c12 [baicalein, 5,6,7-Trihydroxyflavone]
inhibition of ALOX12 (ALOX12): can be inhibited
selectivity for ALOX12 over other ALOXs (ALOX12; inhibits other ALOXs): not selective for ALOX12

CCCCCCCC/C=C/CCCCCCCC(=O)O [elaidic acid]
reduction of ALOX12 mRNA expression (ALOX12 mRNA [1]): 1.8 fold

mA*mG*mA*mA*mC*T*G*T*C*A*A*T*A*A*T*mC*mU*mU*mA*mC (antisense AGAACTGTCAATAATCUUAC; sugars from the 5' end m5 d10 m5, all phosphorothioate, methylation of C not given here) [ASO-4, ALOX12-AS1-201-targeted gapmer ASO]
ALOX12-AS1-201 isoform level (ALOX12-AS1-201; HEK293, 24 hours after transfection, quantitative PCR): significant reduction
knockdown of ALOX12-AS1-201 (ALOX12-AS1-201; HEK293, ALOX12-AS1-201-targeted ASOs, within 24 hours of transfection, multiplex RT-PCR): ~27%
ALOX12 mRNA level (ALOX12 mRNA [2]; HEK293, ALOX12-AS1-201-targeted ASO, 24 hours after transfection, quantitative PCR): unchanged
ALOX12 mRNA levels (ALOX12 mRNA [2]; HEK293, ALOX12-AS1-201-targeted ASOs, multiplex RT-PCR): relatively unaltered
ALOX12-AS1-202 isoform level (ALOX12-AS1-202): significant reduction
ALOX12 protein level ([3]; HEK293, ALOX12-AS1-201-targeted ASO, 24 hours after transfection, quantified immunoblot): significantly reduced
ALOX12 protein level ([3]; HEK293, ALOX12-AS1-201-targeted ASOs, immunoblot): dramatically reduced
